The structures appear in SMILES notation.

Drawing on patent US8415378B2, “Isoxazol-3(2H)-one analogs as therapeutic agents” (AstraZeneca AB, priority 2009, dated 2013), this text covers IC50 for 40 compounds.

In this assay the target is T1, human Glu-plasminogen (Homo sapiens, UniProt P00747).
T1 construct: human Glu-plasminogen; purchased Chromogenix, Italy
T1 sequence (P00747 20-810 limits assumed): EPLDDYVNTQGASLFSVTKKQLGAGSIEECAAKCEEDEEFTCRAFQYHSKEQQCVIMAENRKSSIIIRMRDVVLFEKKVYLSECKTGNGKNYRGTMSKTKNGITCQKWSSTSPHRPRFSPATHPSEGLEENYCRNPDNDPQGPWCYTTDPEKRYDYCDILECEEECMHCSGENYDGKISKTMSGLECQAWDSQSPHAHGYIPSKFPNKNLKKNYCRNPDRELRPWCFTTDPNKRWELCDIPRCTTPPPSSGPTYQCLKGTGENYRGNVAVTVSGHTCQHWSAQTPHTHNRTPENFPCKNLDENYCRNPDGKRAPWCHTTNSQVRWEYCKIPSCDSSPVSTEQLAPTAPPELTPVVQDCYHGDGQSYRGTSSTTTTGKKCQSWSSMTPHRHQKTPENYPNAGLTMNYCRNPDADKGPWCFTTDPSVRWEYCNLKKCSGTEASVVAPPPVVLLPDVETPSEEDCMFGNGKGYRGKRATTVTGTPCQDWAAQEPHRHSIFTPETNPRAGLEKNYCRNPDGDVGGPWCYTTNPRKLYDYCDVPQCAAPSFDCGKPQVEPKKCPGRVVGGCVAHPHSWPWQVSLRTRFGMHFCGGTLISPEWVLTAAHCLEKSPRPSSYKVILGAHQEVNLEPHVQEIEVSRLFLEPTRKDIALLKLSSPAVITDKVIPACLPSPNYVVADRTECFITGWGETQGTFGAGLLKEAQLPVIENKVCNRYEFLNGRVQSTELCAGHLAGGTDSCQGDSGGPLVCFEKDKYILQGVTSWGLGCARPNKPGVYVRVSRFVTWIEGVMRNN
The experiment in a line: Clot-lysis buffer assay. The format is biochemical. The procedure:
The assay method used for evaluating biological activity of the compounds according to the invention was Clot-lysis buffer assay.
Tested substance were added to the reaction mixture in 10% DMSO. Reaction was started by the addition of thrombin.
Measured according to the Clot-lysis buffer assay described above.
Regarding `O=c1cc([C@H]2CCN[C@@H](Cc3cccc(C(F)(F)F)c3)C2)o[nH]1` [Example 107, 5-((2R,4S)-2-(3-(Trifluoromethyl)benzyl)piperidin-4-yl)isoxazol-3(2H)-one], half-maximal inhibition (IC50) required 1.7 µM.
To `O=c1cc([C@H]2CCN[C@@H](Cc3cc(F)c(F)c(F)c3)C2)o[nH]1` [Example 143, 5-((2R,4S)-2-(3,4,5-Trifluorobenzyl)piperidin-4-yl)isoxazol-3(2H)-one] belongs 0.9 µM; to `O=c1cc([C@H]2CCN[C@@H](c3cc(F)c(F)c(F)c3)C2)o[nH]1` [Example 60, 5-((2R,4S)-2-(3,4,5-Trifluorophenyl)piperidin-4-yl)isoxazol-3(2H)-one], 1.9 µM; to `O=c1cc([C@H]2CCN[C@@H](c3ccc(F)cc3)C2)o[nH]1` [Example 25, 5-((2R,4S)-2-(4-Fluorophenyl)piperidin-4-yl)isoxazol-3(2H)-one], 2.5 µM.
To `O=c1cc([C@@H]2CCN[C@@H](c3ccc(C(F)(F)F)cc3F)C2)o[nH]1` (relative stereo) [Example 74, 5-(Trans-2-(2-fluoro-4-(trifluoromethyl)phenyl)piperidin-4-yl)isoxazol-3(2H)-one] belongs 52.2 µM.
To `CC(C)(C[C@@H]1C[C@@H](c2cc(=O)[nH]o2)CCN1)c1ccccc1` [Example 18, 5-((2S,4S)-2-(2-Methyl-2-phenylpropyl)piperidin-4-yl)isoxazol-3(2H)-one] belongs 1.6 µM; to `O=c1cc([C@@H]2CCN[C@@H](Cc3ccc(OC(F)(F)F)cc3)C2)o[nH]1` (relative stereo) [Example 114, 5-(Trans-2-(4-(trifluoromethoxy)benzyl)piperidin-4-yl)isoxazol-3(2H)-one], 6.5 µM.
Consider `CC(C)(C)c1ccc(C[C@@H]2C[C@@H](c3cc(=O)[nH]o3)CCN2)cc1` [Example 11, 5-((2S,4S)-2-(4-tert-Butylbenzyl)piperidin-4-yl)isoxazol-3(2H)-one], for which the IC50 worked out at 4.3 µM.
`O=c1cc([C@@H]2CCN[C@H](Cc3cc(F)cc(F)c3)C2)o[nH]1` [Example 131, 5-((2S,4R)-2-(3,5-Difluorobenzyl)piperidin-4-yl)isoxazol-3(2H)-one] gave an IC50 of 128 µM.
The value for `CC(C)(C)c1ccc([C@H]2C[C@@H](c3cc(=O)[nH]o3)CCN2)s1` [Example 42, 5-((2R,4S)-2-(5-tert-Butylthiophen-2-yl)piperidin-4-yl)isoxazol-3(2H)-one] was 34.9 µM.
The value for `O=c1cc([C@@H]2CCN[C@@H](CCc3ccc(F)cc3)C2)o[nH]1` (relative stereo) [Example 94, 5-(Trans-2-(4-fluorophenethyl)piperidin-4-yl)isoxazol-3(2H)-one] was 4.6 µM.
The value for `O=c1cc([C@@H]2CCN[C@@H](c3cc(F)c(Cl)c(F)c3)C2)o[nH]1` (relative stereo) [Example 66, 5-(Trans-2-(4-chloro-3,5-difluorophenyl)piperidin-4-yl)isoxazol-3(2H)-one] was 7.5 µM; that for `O=c1cc([C@@H]2CCN[C@@H](Cc3ccc(F)c(F)c3)C2)o[nH]1` [Example 123, 5-((2R,4R)-2-(3,4-Difluorobenzyl)piperidin-4-yl)isoxazol-3(2H)-one] was 147 µM.
Compound `O=c1cc([C@@H]2CCN[C@H](Cc3c(F)cccc3F)C2)o[nH]1` [Example 128, 5-((2S,4R)-2-(2,6-Difluorobenzyl)piperidin-4-yl)isoxazol-3(2H)-one] registered an IC50 of 31.4 µM.
In turn, `O=c1cc([C@H]2CCN[C@@H](Cc3ccc(C(F)(F)F)cc3)C2)o[nH]1` [Example 104, 5-((2R,4S)-2-(4-(Trifluoromethyl)benzyl)piperidin-4-yl)isoxazol-3(2H)-one] showed an IC50 of 1.5 µM.
`O=c1cc([C@@H]2CCN[C@@H](Cc3c(F)cccc3F)C2)o[nH]1` (relative stereo) [Example 129, 5-(Trans-2-(2,6-difluorobenzyl)piperidin-4-yl)isoxazol-3(2H)-one] registered an IC50 of 10.2 µM.
The value for `O=c1cc([C@H]2CCN[C@@H](Cc3ccc(F)cc3F)C2)o[nH]1` [Example 134, 5-((2R,4S)-2-(2,4-Difluorobenzyl)piperidin-4-yl)isoxazol-3(2H)-one] was 0.85 µM.
To `CS(=O)(=O)c1ccc(C[C@@H]2C[C@H](c3cc(=O)[nH]o3)CCN2)cc1` [Example 118, 5-((2S,4R)-2-(4-(Methylsulfonyl)benzyl)piperidin-4-yl)isoxazol-3(2H)-one] belongs 225 µM; to `CC(C)(C)c1cc(C[C@H]2C[C@H](c3cc(=O)[nH]o3)CCN2)cc(C(C)(C)C)c1` (relative stereo) [Example 148, 5-(Trans-2-(3,5-di-tert-butylbenzyl)piperidin-4-yl)isoxazol-3(2H)-one], 2.7 µM.
The value for `O=c1cc([C@@H]2CCN[C@H](c3ccc(Cl)cc3)C2)o[nH]1` [Example 28, 5-((2S,4R)-2-(4-Chlorophenyl)piperidin-4-yl)isoxazol-3(2H)-one] was 283 µM.
Compound `O=c1cc([C@@H]2CCN[C@@H](C(F)F)C2)o[nH]1` (relative stereo) [Example 88, 5-(Trans-2-(difluoromethyl)piperidin-4-yl)isoxazol-3(2H)-one] yielded an IC50 of 31.2 µM.
To `O=c1cc([C@H]2CCN[C@@H](c3ccc(F)c(F)c3)C2)o[nH]1` [Example 23, 5-((2R,4S)-2-(3,4-Difluorophenyl)piperidin-4-yl)isoxazol-3(2H)-one] belongs 1 µM.
The value for `O=c1cc([C@H]2CCN[C@@H](c3cc(F)c(F)cc3F)C2)o[nH]1` [Example 63, 5-((2R,4S)-2-(2,4,5-Trifluorophenyl)piperidin-4-yl)isoxazol-3(2H)-one] was 3.22 µM; that for `O=c1cc([C@H]2CCN[C@H](c3cc(F)c(F)cc3F)C2)o[nH]1` [Example 64, 5-((2S,4S)-2-(2,4,5-Trifluorophenyl)piperidin-4-yl)isoxazol-3(2H)-one] was 31.4 µM; that for `O=c1cc([C@@H]2CCN[C@H](Cc3ccccc3C(F)(F)F)C2)o[nH]1` [Example 111, 5-((2S,4R)-2-(2-(trifluoromethyl)benzyl)piperidin-4-yl)isoxazol-3(2H)-one] was 31.3 µM.
To `Cc1cc(C(F)(F)F)ccc1[C@H]1C[C@@H](c2cc(=O)[nH]o2)CCN1` [Example 72, 5-((2R,4S)-2-(2-Methyl-4-(trifluoromethyl)phenyl)piperidin-4-yl)isoxazol-3(2H)-one] belongs 0.6 µM.
In turn, `O=c1cc([C@H]2CCN[C@@H](Cc3c(F)cccc3F)C2)o[nH]1` [Example 127, 5-((2R,4S)-2-(2,6-Difluorobenzyl)piperidin-4-yl)isoxazol-3(2H)-one] registered an IC50 of 1.4 µM.
The value for `Cc1cc([C@H]2C[C@H](c3cc(=O)[nH]o3)CCN2)ccc1C(F)(F)F` (relative stereo) [Example 69, 5-(Trans-2-(3-methyl-4-(trifluoromethyl)phenyl)piperidin-4-yl)isoxazol-3(2H)-one] was 92.5 µM.
As for `CS(=O)(=O)c1ccc(C[C@H]2C[C@@H](c3cc(=O)[nH]o3)CCN2)cc1` [Example 117, 5-((2R,4S)-2-(4-(Methylsulfonyl)benzyl)piperidin-4-yl)isoxazol-3(2H)-one], the IC50 was found to be 0.8 µM.
The value for `O=c1cc([C@H]2CCN[C@@H](COC3CCCCC3)C2)o[nH]1` [Example 84, 5-((2R,4S)-2-(Cyclohexyloxymethyl)piperidin-4-yl)isoxazol-3(2H)-one] was 1.7 µM; that for `O=c1cc([C@@H]2CCN[C@@H](c3ccc(F)cc3Cl)C2)o[nH]1` (relative stereo) [Example 48, 5-(Trans-2-(2-chloro-4-fluorophenyl)piperidin-4-yl)isoxazol-3(2H)-one] was 44.3 µM; that for `O=c1cc([C@@H]2CCN[C@H](Cc3cc(F)cc(C(F)(F)F)c3)C2)o[nH]1` [Example 138, 5-((2S,4R)-2-(3-Fluoro-5-(trifluoromethyl)benzyl)piperidin-4-yl)isoxazol-3(2H)-one] was 123 µM.
The value for `O=c1cc([C@H]2CCN[C@@H](Cc3ccc(C(F)(F)F)c(F)c3)C2)o[nH]1` [Example 140, 5-((2R,4S)-2-(3-Fluoro-4-(trifluoromethyl)benzyl)piperidin-4-yl)isoxazol-3(2H)-one] was 0.6 µM; that for `CC(C)(C[C@H]1C[C@@H](c2cc(=O)[nH]o2)CCN1)c1ccccc1` [Example 19, 5-((2R,4S)-2-(2-Methyl-2-phenylpropyl)piperidin-4-yl)isoxazol-3(2H)-one] was 1.6 µM; that for `O=c1cc([C@H]2CCN[C@@H](C(F)F)C2)o[nH]1` [Example 87, 5-((2R,4S)-2-(Difluoromethyl)piperidin-4-yl)isoxazol-3(2H)-one] was 10.7 µM.
To `O=c1cc([C@H]2CCN[C@H](Cc3cc(F)cc(F)c3)C2)o[nH]1` [Example 132, 5-((2S,4S)-2-(3,5-Difluorobenzyl)piperidin-4-yl)isoxazol-3(2H)-one] belongs 2.2 µM.
Turning to `O=c1cc([C@H]2CCN[C@@H](CCc3ccc(F)cc3)C2)o[nH]1` [Example 92, 5-((2S,4S)-2-(4-Fluorophenethyl)piperidin-4-yl)isoxazol-3(2H)-one], the IC50 was determined as 1.1 µM.
`Cn1nnnc1[C@H]1C[C@@H](c2cc(=O)[nH]o2)CCN1` [Example 83, 5-((2R,4S)-2-(1-Methyl-1H-tetrazol-5-yl)piperidin-4-yl)isoxazol-3(2H)-one] had an IC50 of 42 µM.
For `O=c1cc([C@@H]2CCN[C@H](CC3CCC(F)(F)CC3)C2)o[nH]1` [Example 90, 5-((2R,4R)-2-((4,4-Difluorocyclohexyl)methyl)piperidin-4-yl)isoxazol-3(2H)-one], the IC50 turned out to be 102 µM.
Regarding `Cn1nnc([C@H]2C[C@H](c3cc(=O)[nH]o3)CCN2)n1` (relative stereo) [Example 82, 5-(Trans-2-(2-methyl-2H-tetrazol-5-yl)piperidin-4-yl)isoxazol-3(2H)-one], the IC50 is 20.3 µM.

For orientation: IC50 means the concentration at which inhibition is half-maximal. Higher therefore signals weaker potency in that assay.
